Experimental findings from PMC7354438 (Viruses, 2020) are described below.

Counter-ions that a name gives are not always drawn.

One experiment relates to hCoV-19/Norway/Trondheim-E9/2020. The experiment in a line: Drug test: viability of SARS-CoV-2-infected Vero-E6 cells (CellTiter-Glo). Type of experiment: cell-based. Also noted: AUC: unit not given beside the values.
Conditions: not given
Background: In ATP-based viability assays light output follows the ATP content of the culture.
As for `CN1CCC[C@H]1c1cccnc1` [nicotine], the AUC is listed as 239 and the “rescue of cells from virus-mediated death” value was “rescued cells from virus-mediated death but altered the cell morphology”.

The experiment is the same for the next values; noted with them: 72 h.
In the case of `CS(=O)(=O)O.Cc1ccc2c(c1)c1c3n2CCNC3CCC1` (centres unmarked) [Pirlindole mesylate], the AUC is 120,4.
As for `Cn1c(=O)c2c(ncn2CC(O)CO)n(C)c1=O` (centres unmarked) [7-(2,3-Dihydroxypropyl)theophylline], the AUC is on record as 195,44.
Still for that read-out and setting: in the case of `Nc1ncn([C@@H]2O[C@H](CO)[C@@H](O)[C@H]2O)c(=O)n1` [Azacytidine] it was 228,06; in that of `CN[C@H](CC(C)C)C(=O)N[C@H]1C(=O)N[C@@H](CC(N)=O)C(=O)N[C@H]2C(=O)N[C@H]3C(=O)N[C@H](C(=O)N[C@H](C(=O)O)c4cc(O)cc(O)c4-c4cc3ccc4O)[C@H](O[C@H]3C[C@](C)(N)[C@@H](O)[C@H](C)O3)c3ccc(c(Cl)c3)Oc3cc2cc(c3O[C@@H]2O[C@H](CO)[C@@H](O)[C@H](O)[C@H]2O[C@H]2C[C@](C)(NCc3ccc(-c4ccc(Cl)cc4)cc3)[C@@H](O)[C@H](C)O2)Oc2ccc(cc2Cl)[C@H]1O` [Oritavancin], 163,24.
The same measure, in the same setting: in the case of Ivermectin it was 66,08.
The compound `C[C@H]1O[C@@H](O[C@H]2CC[C@@]3(C)[C@@H](CC[C@]4(C)[C@@H]3C=C[C@]35OC[C@@]6(CCC(C)(C)C[C@H]63)[C@@H](O)C[C@]54C)[C@]2(C)CO)[C@H](O)[C@@H](O[C@@H]2O[C@H](CO)[C@@H](O)[C@H](O)[C@H]2O)[C@H]1O` [Saikosaponin A] had an AUC of 77.
On the same count and under the same terms, in the case of `CC[C@H](CO)Nc1nc(NCc2ccccc2)c2ncn(C(C)C)c2n1` [Roscovitine] it was 137,97; in that of `CC(C)OC(=O)[C@H](C)N[P@](=O)(OC[C@H]1O[C@@H](n2ccc(=O)[nH]c2=O)[C@](C)(F)[C@@H]1O)Oc1ccccc1` [PSI-7977 (Sofosbuvir), Sofosbuvir], 131,11; in that of Clomiprade hydrochloride, 74,69.
In the case of `Cc1cc(O)c2c(c1)C(=O)c1cc(O)cc(O)c1C2=O` [Emodin], the AUC is 170,24.
The same measure, in the same setting: in the case of `CC(C)C[C@H]1C(=O)N2CCC[C@H]2[C@]2(O)O[C@](NC(=O)[C@@H]3C=C4c5cccc6[nH]c(Br)c(c56)C[C@H]4N(C)C3)(C(C)C)C(=O)N12` [Bromocriptine] it was 164,57.
On to `CO[C@H]1C[C@@H]2CC[C@@H](C)[C@@](O)(O2)C(=O)C(=O)N2CCCC[C@H]2C(=O)O[C@H]([C@H](C)C[C@@H]2CC[C@@H](O)[C@H](OC)C2)CC(=O)[C@H](C)/C=C(\C)[C@@H](O)[C@@H](OC)C(=O)[C@H](C)C[C@H](C)/C=C/C=C/C=C/1C` [Rapamycin], for which the AUC is recorded as 46,9.
Take `CO[C@@]1(NC(=O)C(C(=O)[O-])c2ccc(O)cc2)C(=O)N2C(C(=O)[O-])=C(CSc3nnnn3C)CO[C@@H]21.[Na+].[Na+]` (some centres unmarked) [Moxalactam sodium salt]: the AUC is given as 18,13.
`COc1ccc(C[C@H]2NC[C@H](O)[C@H]2OC(C)=O)cc1` [Anisomycin]: the AUC is listed as 169,33.
For `CC[C@@]1(O)C(=O)OCc2c1cc1n(c2=O)Cc2cc3ccccc3nc2-1` [Camptothecin], the AUC is recorded as 57,75.
Still for that read-out and setting: then `CCN(CC)C[C@@H](O)CNc1ccc(NC[C@H]2CO2)c2c1C(=O)c1ccccc1C2=O` [BDA-366], with 174,3.

Staying with this experiment, now noted: area under the dose-response curve of viability of virus-infected Vero-E6 cells; moi 0.1; 72 h; 7 concentrations; decimal comma.
On to `CN1[C@@H]2CC[C@H]1C[C@@H](OC(c1ccccc1)c1ccccc1)C2` [Benzatropine], for which the AUC is on record as 208,11.
Still for that read-out and setting: in the case of `NC(=O)c1ncn([C@@H]2O[C@H](CO)[C@@H](O)[C@H]2O)n1` [Ribavirin] it was 134,26; in that of `Nc1nc(O)c2ncn(COC(CO)CO)c2n1` [Ganciclovir], 243,88.
Still for that read-out and setting: then `CCN(CC)CCCC(C)Nc1c2ccc(Cl)cc2nc2ccc(OC)cc12` (centres unmarked) [Quinacrine dihydrochloride], with 105,63; and `CC(C)n1c(/C=C/C(O)CC(O)CC(=O)O)c(-c2ccc(F)cc2)c2ccccc21` (centres unmarked) [Fluvastatin], with 154,14; and `CCC(C)(C)C(=O)O[C@H]1C[C@@H](C)C=C2C=C[C@H](C)[C@H](CC[C@@H]3C[C@@H](O)CC(=O)O3)[C@H]21` [Simvastatin], with 163,03.
Same read-out and setting: then `CC(C)[C@H](N)C(=O)OCCOCn1cnc2c(=O)[nH]c(N)nc21` [Valaciclovir], with 134,61; and `CO[C@@H]1[C@@H](OC(N)=O)[C@@H](O)[C@H](Oc2ccc3c(O)c(NC(=O)c4ccc(O)c(CC=C(C)C)c4)c(=O)oc3c2C)OC1(C)C` [Novobiocin], with 100,73.
With `CNC(=C[N+](=O)[O-])NCCSCc1ccc(CN(C)C)o1` [Ranitidine], the AUC is on record as 94,08.
Consider `Cc1nc(Nc2ncc(C(=O)Nc3c(C)cccc3Cl)s2)cc(N2CCN(CCO)CC2)n1` [Dasatinib], for which the AUC is on record as 135,45.
Turning to `C/C(O)=C(\C#N)C(=O)Nc1ccc(C(F)(F)F)cc1` [Teriflunomide], the AUC is recorded as 72,87.
On the same count and under the same terms, in the case of `CCCCOc1cc(C(=O)NCCN(CC)CC)c2ccccc2n1` [Dibucaine] it was 214,34; in that of `O=C(O)[C@H]1C2CCC(CC2)[C@@H]1Nc1nc(-c2c[nH]c3ncc(F)cc23)ncc1F` [Pimodivir], 126,91.
As for `CC(=O)N[C@H]1[C@H]([C@H](O)[C@H](O)CO)OC(C(=O)O)=C[C@@H]1N=C(N)N` [Zanamivir], the AUC is 113,54.
As for `CCN(CC)CCCC(C)Nc1ccnc2cc(Cl)ccc12` (centres unmarked) [Chloroquine phosphate], the AUC is 165,9.
Same read-out and setting: in the case of `O=c1[nH]c(=O)n([C@H]2C[C@H](O)[C@@H](CO)O2)cc1C(F)(F)F` [Trifluridine] it was 107,17.
On the same count and under the same terms, in the case of `CCC(C)n1ncn(-c2ccc(N3CCN(c4ccc(OCC5COC(Cn6cncn6)(c6ccc(Cl)cc6Cl)O5)cc4)CC3)cc2)c1=O` (centres unmarked) [Itraconazole] it was 110,18; in that of `CC[C@H](C)C(=O)O[C@H]1C[C@@H](C)C=C2C=C[C@H](C)[C@H](CC[C@@H]3C[C@@H](O)CC(=O)O3)[C@H]21` [Lovastatin], 204,26.
Consider `CC[C@H]1OC(=O)[C@H](C)[C@@H](O[C@H]2C[C@@](C)(OC)[C@@H](O)[C@H](C)O2)[C@H](C)[C@@H](O[C@@H]2O[C@H](C)C[C@H](N(C)C)[C@H]2O)[C@](C)(O)C[C@@H](C)CN(C)[C@H](C)[C@@H](O)[C@]1(C)O` [Azithromycin], for which the AUC is listed as 119,42.
Turning to `Nc1nc(=O)c2ncn([C@@H]3C[C@H](CO)[C@H]3CO)c2[nH]1` [Lobucavir], the AUC is given as 153,65.
Regarding `O=C1O[C@H]([C@@H](O)CO)C(O)=C1O` [Ascorbic acid], the AUC is reported as 108,5.
The same measure, in the same setting: then `CC(=O)Oc1ccccc1C(=O)O` [Acetylsalicylic acid], with 131,04; and `CC(C)OC(=O)OCOP(=O)(CO[C@H](C)Cn1cnc2c(N)ncnc21)OCOC(=O)OC(C)C` [Tenofovir disoproxil fumarate], with 137,2.
Same read-out and setting: in the case of `CN(C)c1ccc(O)c2c1C[C@H]1C[C@H]3[C@H](N(C)C)C(O)=C(C(N)=O)C(=O)[C@@]3(O)C(O)=C1C2=O` [Minocycline] it was 119,14.
Same read-out and setting: then `O=C(c1ccc(OCCN2CCCCC2)cc1)c1c(-c2ccc(O)cc2)sc2cc(O)ccc12` [Raloxifene], with 199,57.
In the case of `CC(C)C[C@H](NC(=O)[C@H](Cc1ccccc1)NC(=O)c1cnccn1)B(O)O` [Bortezomib (PS-341), Bortezomib], the AUC was 68,67.
